Results as given in patent US11324832B2, “Tripartite modulators of endosomal G protein-coupled receptors” (Endosome Therapeutics, Inc., priority 2015, dated 2022).
Where a SMILES comes first, the peptide text is derived from it. [ ]: non-standard residue; d: D form. The star is where a group is joined. X1 = CC(C)CCC[C@@H](C)[C@H]1CC[C@H]2[C@@H]3CC[C@H]4C[C@@H](O*)CC[C@]4(C)[C@H]3CC[C@]12C; NMeL = CN[C@@H](CC(C)C)C(=O)O; PEG4 = NCCOCCOCCOCCOCCC(=O)O; PEG3 = NCCOCCOCCOCCC(=O)O; Ava = NCCCCC(=O)O

Experiments:
NK1R [1] = molecular target: T1, NK1R (Rattus norvegicus, UniProt P14600); test: FRET biosensors of compartmentalized signaling (ERK, PKC, cAMP) in NK1R-expressing HEK293 cells; format: cell-based; set-up: Full length and truncated 6312 rat HA-NK1R have been described; expressed in transfected cells; host or cells: HEK293 (transient); conditions: agonist alone, imaged over 20 min
Method: To study the link between NK1R trafficking and signaling, the NK1R and Förster Resonance Energy Transfer (FRET) biosensors targeted to detect activated ERK in the cytosol (CytoEKAR) or nucleus (NucEKAR, FIG. 2A), activated PKC at the plasma membrane (pmCKAR) or in the cytosol (CytoCKAR, FIG. 2C), and cAMP at the plasma membrane (pmEpac2) or in the cytosol (CytoEpac2, FIG. 2E) were expressed in HEK293 cells.
HEK293 cells were transfected with 55 ng/well rat NK1R with N-terminal HA. 11 epitope tag (HA-NK1R) or CLR plus RAMP1 and 40 ng/well FRET biosensors. FRET was assessed 48 h after transfection, following serum restriction (0.5% FBS overnight). For experiments using clathrin or dynamin siRNA, cells were transfected with 55 ng/well rat HA-NK1R, 40 ng/well FRET biosensor and 25 nM/well scrambled, clathrin or dynamin ON-TARGETplus SMARTpool siRNA (GE Dharmacon). FRET was assessed 72 h after transfection, following serum restriction (0.5% FBS overnight). Cells were equilibrated in HBSS at 37° C. and FRET was analyzed using a GE Healthcare INCell 2000 Analyzer. For GFP/RFP emission ratio analysis, cells were sequentially excited using a FITC filter (490/20) with emission measured using dsRed (605/52) and FITC (525/36) filters, and a polychroic optimized for the FITC/dsRed filter pair (Quad4). For CFP/YFP emission ratio analysis, cells were sequentially excited using a CFP filter (430/24) with emission measured using YFP (535/30) and CFP (470/24) filters, and a polychroic optimized for the CFP/YFP filter pair (Quad3). Cells were imaged every 1 min, allowing image capture of 14 wells per minute. Baseline emission ratio images were captured for 4 min. […] Cells were then stimulated with the positive control (200 nM phorbol 12,13-dibutyrate for ERK; 200 nM phorbol 12,13-dibutyrate with phosphatase inhibitor cocktail for PKC; 10 μM forskolin, 100 μM 3-isobutyl-1-methylxanthine, 100 nM PGE1 for cAMP) for 10 min to generate a maximal increase, and positive emission ratio images were captured for 4 min. Data were analyzed as described and expressed as emission ratios relative to baseline for each cell (F/F0). Cells with >10% change in F/F0 after stimulation with positive controls were selected for analysis.

NK1R [2] = molecular target: T1, NK1R; test: Calcium mobilization assay, agonist mode, HEK293 cells expressing NK1R; format: cell-based; set-up: Full length and truncated 6312 rat HA-NK1R have been described; expressed in transfected cells; host or cells: HEK293
Description: GR73632 was conjugated to cholestanol (Compound 3) or ethyl ester (GR73632-ethyl ester) via a flexible PEG linker. The effect of these compounds in HEK293 cells expressing NK1R was then studied.

NK1R [3] = molecular target: T1, NK1R; test: BRET between NK1R-RLuc8 and βarr1/2-YFP in HEK293 cells; format: cell-based; set-up: Full length and truncated 6312 rat HA-NK1R have been described; expressed in transfected cells; host or cells: HEK293 (transient); conditions: agonist alone
Method: Bioluminescence Resonance Energy Transfer (BRET) was employed to quantitatively assess the proximity of the NK1R to key regulators of GPCR trafficking (βarrs), and resident proteins of plasma (KRas) and early endosomal (Rab5a) membranes in HEK293 cells (FIG. 1A).
HEK293 cells were transfected with the following cDNAs: 1 μg NK1R-RLuc8 or 1 μg CLR-RLuc8+1 μg Myc-RAMP1+4 μg KRas-Venus, 4 μg Rab5a-Venus, 4 μg βarr1-YFP, or 4 μg βarr2-YFP; or 1 μg NK1R+0.5 μg Gαq-RLuc8+1 μg Gβ1+4 μg Gγ2-Venus; or 1 μg NK1R+0.5 μg Gαq-RLuc8+1 μg Gβ1+1 μg Gγ2+4 μg Rab5a-Venus. After 48 h, cells were equilibrated in Hank's balanced salt solution (HBSS) at 37° C., and incubated with the RLuc substrate coelenterazine h (5 μM, 15 min).

[4] = molecular target: T2, endothelin converting enzyme 1 (Homo sapiens, UniProt P42892); conditions: cited from earlier work
T2 sequence (P42892 1-770): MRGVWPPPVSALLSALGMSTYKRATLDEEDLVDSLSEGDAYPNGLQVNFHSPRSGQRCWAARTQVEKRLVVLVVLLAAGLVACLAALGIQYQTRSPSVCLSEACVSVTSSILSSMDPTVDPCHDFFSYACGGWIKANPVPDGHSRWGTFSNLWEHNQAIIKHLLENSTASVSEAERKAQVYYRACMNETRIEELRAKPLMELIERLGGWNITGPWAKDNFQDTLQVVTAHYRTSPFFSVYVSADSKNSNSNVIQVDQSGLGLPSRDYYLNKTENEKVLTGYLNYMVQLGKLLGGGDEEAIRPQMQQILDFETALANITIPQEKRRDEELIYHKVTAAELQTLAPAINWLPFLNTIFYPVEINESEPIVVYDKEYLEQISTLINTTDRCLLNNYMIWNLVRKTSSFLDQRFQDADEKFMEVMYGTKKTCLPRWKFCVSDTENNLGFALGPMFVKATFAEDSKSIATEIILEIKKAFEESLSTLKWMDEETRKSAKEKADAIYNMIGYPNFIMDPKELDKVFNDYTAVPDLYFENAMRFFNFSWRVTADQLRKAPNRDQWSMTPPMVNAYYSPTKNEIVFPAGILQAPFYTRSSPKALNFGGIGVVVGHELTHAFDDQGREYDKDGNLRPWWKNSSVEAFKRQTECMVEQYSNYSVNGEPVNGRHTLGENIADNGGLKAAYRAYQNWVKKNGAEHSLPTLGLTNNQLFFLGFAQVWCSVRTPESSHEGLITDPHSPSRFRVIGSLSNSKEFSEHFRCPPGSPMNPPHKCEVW

T1 sequence (P14600 whole entry, the tested form may be a part): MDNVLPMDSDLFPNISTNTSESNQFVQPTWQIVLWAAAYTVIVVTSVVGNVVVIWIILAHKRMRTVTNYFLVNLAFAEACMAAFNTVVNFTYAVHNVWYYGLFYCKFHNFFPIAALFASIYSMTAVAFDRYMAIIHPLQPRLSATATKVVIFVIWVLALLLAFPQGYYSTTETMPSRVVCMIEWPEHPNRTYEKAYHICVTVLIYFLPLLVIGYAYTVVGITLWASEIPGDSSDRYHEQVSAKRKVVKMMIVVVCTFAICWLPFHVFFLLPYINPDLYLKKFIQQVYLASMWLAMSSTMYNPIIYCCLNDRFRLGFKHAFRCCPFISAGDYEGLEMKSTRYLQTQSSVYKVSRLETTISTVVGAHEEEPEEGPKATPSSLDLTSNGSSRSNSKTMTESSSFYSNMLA

EC50 (NK1R [2]; HEK293 cells expressing NK1R, given as logEC50 (negative))	SMILES	cytosolic ERK activation (FRET CytoEKAR) (NK1R [1])	nuclear ERK activation (FRET NucEKAR) (NK1R [1])	decrease in potency compared to the free agonist (NK1R [2]; calcium mobilization)	recruitment of βarrs (BRET NK1R-RLuc8 / βarr1-YFP, βarr2-YFP) (NK1R [3])	susceptibility to cleavage by endothelin converting enzyme 1 [4]
	CSCC[C@H](NC(=O)[C@H](CC(C)C)N(C)C(=O)[C@@H]1CCCN1C(=O)[C@H](Cc1ccccc1)NC(=O)[C@H](Cc1ccccc1)NC(=O)CCCCNC(=O)CCOCCOCCOCCOCCNC(=O)CCOCCOCCOCCNC(=O)CCOCCOCCOCCOCCNC(=O)[C@H](CC(=O)O[C@H]1CC[C@@]2(C)[C@@H](CC[C@@H]3[C@@H]2CC[C@]2(C)[C@@H]([C@H](C)CCCC(C)C)CC[C@@H]32)C1)NC(C)=O)C(N)=O [Compound 3] (Ac-D(X1)[PEG4][PEG3][PEG4][Ava]FFP[NMeL]M-NH2)	no cytosolic ERK	stimulates sustained nuclear ERK phosphorylation	~100 fold	does not induce recruitment of βarrs	
0.933 nM	CSCC[C@H](NC(=O)[C@H](CC(C)C)N(C)C(=O)[C@@H]1CCCN1C(=O)[C@H](Cc1ccccc1)NC(=O)[C@H](Cc1ccccc1)NC(=O)CCCCN)C(N)=O [GR73632, Ava-Phe-Phe-Pro-N-MeLeu-Met-NH2] (H-[Ava]FFP[NMeL]M-NH2)	stimulated sustained cytosolic and nuclear ERK phosphorylation	stimulated sustained cytosolic and nuclear ERK phosphorylation			not susceptible to cleavage
